Several values for one entry are separate records, joined by “and”; a condition that tells them apart may be missing. Identical values can stand only once. Like-named read-outs stand apart in the source and are kept apart here.
Columns and labels:
Experiment in all cases: In vitro metalloprotease inhibition, fluorogenic MCA peptide substrate
Format in all cases: biochemical
MMP-13 = target: T1, MMP-13 (Homo sapiens, UniProt P45452); conditions: APMA-activated, room temperature, pH 7.5
T1 construct: made in house; host or cells: baculovirus / insect cells
Procedure: (§1) Briefly, 4-aminophenylmercuric acetate (APMA) or trypsin-activated MMPs were incubated with various concentrations of the inhibitor compound at room temperature for 5 minutes.
(§2) The expressed enzyme was purified first over a heparin agarose column and then over a chelating zinc chloride column. The proenzyme was activated by APMA for use in the assay.
(§3) The enzyme substrate is a methoxycoumarin-containing polypeptide having the following sequence:
(§4) MCA-ProLeuGlyLeuDpaAlaArgNH2, wherein MCA is methoxycoumarin and Dpa is 3-(2,4-dinitrophenyl)-L-2,3-diaminopropionyl alanine.
(§5) The assayed inhibitor compound in DMSO/buffer solution was compared to an equal amount of DMSO/buffer with no inhibitor as control using Microfluor™ White Plates (Dynatech). The inhibitor or control solution was maintained in the plate for 10 minutes and the substrate was added to provide a final concentration of 4 μM.
(§6) Inhibition was measured as a reduction in fluorescent intensity as a function of inhibitor concentration, using a Perkin Elmer L550 plate reader. The IC50 values were calculated from those values.

MMP-2 = target: T2, MMP-2 (Homo sapiens, UniProt P08253); conditions: room temperature, pH 7.5
T2 sequence (P08253 110-660): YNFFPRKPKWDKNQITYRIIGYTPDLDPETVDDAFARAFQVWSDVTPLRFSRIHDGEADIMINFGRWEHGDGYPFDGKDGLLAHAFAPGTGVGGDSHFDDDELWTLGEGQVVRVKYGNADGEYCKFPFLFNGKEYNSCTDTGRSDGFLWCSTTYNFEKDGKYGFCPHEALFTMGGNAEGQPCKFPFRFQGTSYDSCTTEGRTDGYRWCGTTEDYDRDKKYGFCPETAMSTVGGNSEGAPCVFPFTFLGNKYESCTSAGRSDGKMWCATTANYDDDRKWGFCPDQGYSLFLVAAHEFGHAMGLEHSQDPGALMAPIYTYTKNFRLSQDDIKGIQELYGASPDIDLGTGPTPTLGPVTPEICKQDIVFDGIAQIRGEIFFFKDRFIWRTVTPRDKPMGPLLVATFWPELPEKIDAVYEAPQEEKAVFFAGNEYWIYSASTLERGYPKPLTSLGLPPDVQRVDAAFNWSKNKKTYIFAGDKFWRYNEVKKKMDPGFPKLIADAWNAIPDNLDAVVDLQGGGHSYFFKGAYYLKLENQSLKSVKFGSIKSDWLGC
Procedure: Briefly, 4-aminophenylmercuric acetate (APMA) or trypsin-activated MMPs were incubated with various concentrations of the inhibitor compound at room temperature for 5 minutes. […] The assayed inhibitor compound in DMSO/buffer solution was compared to an equal amount of DMSO/buffer with no inhibitor as control using MicrofluorTM White Plates (Dynatech). The inhibitor or control solution was maintained in the plate for 10 minutes and the substrate was added to provide a final concentration of 4 μM. […] Inhibition was measured as a reduction in fluorescent intensity as a function of inhibitor concentration, using a Perkin Elmer [MUT] plate reader. The IC50 values were calculated from those values.

MMP-1 = target: T3, MMP-1 (Homo sapiens, UniProt P03956); conditions: recombinant human enzyme, APMA-activated, room temperature, pH 7.5
T3 construct: host or cells: transfected HT-1080 cells
T3 sequence (P03956 100-469): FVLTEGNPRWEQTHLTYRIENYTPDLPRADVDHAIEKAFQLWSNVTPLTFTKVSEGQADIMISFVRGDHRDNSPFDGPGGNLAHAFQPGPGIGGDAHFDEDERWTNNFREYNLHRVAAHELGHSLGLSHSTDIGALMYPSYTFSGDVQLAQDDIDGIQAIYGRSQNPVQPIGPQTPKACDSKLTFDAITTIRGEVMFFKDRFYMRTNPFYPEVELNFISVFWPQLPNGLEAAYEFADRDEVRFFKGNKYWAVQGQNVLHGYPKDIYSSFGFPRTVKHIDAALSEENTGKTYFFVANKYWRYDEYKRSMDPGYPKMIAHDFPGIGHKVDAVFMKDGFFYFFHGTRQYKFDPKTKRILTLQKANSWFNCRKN
Procedure: as §1, §2
MMP-1 expressed in transfected HT-1080 cells was provided by Dr. Harold Welgus of Washington University, St. Louis, Mo. The enzyme was also activated using APMA and was then purified over a hydroxamic acid column.
as §3, §4, §5, §6

[1] = recombinant human enzyme, read-out: MMP-13 IC50
[2] = MMP-13 IC50, recombinant human enzyme

Compound | IC50 (MMP-13; [1]) | IC50 (MMP-2) | IC50 (MMP-1) | IC50 (MMP-13; [2])
CC(CS(=O)(=O)c1ccc(Oc2ccccc2)cc1)(NC(=O)CN1CCCC1)C(=O)NO (stereo not shown) [Example 49] | 160 nM | – | – | –
CCCCC(=O)NC(CS(=O)(=O)c1ccc(Sc2ccccc2)cc1)C(=O)NO (stereo not shown) [Example 11g, N-[1-[(Hydroxyamino)carbonyl]-2-[[4-(phenylthio)phenyl]sulfonyl]ethyl]pentanamide] | 6 nM | – | – | –
CN(Cc1ccccc1)[C@H](CS(=O)(=O)c1ccc(Oc2ccccc2)cc1)C(=O)NO [Example 48] | 0.2 nM | < 0.1 nM | 475 nM | –
CC(N)(CS(=O)(=O)c1ccc(NC(=O)c2ccccc2)cc1)C(=O)NO (stereo not shown) [Example 61] | 60 nM | 1.1 nM | > 10000 nM | –
O=C(NC(CS(=O)(=O)c1ccc(Sc2ccccc2)cc1)C(=O)NO)c1cccc2ccccc12 (stereo not shown) [Example 36] | 2.5 nM | – | > 10000 nM | –
CN[C@@H](CS(=O)(=O)c1ccc(Oc2ccccc2)cc1)C(=O)NO [Example 41] | 0.4 nM and 1 nM | 0.3 nM and 0.5 nM | 440 nM and 670 nM | –
O=C(N[C@@H](CS(=O)(=O)c1ccc(Oc2ccccc2)cc1)C(=O)NO)c1ccnc2ccccc12 [Example 51] | 0.4 nM | 0.3 nM | 295 nM | –
COc1ccc(S(=O)(=O)CC(NC(=O)CNC(=O)OCc2ccccc2)C(=O)NO)cc1 (stereo not shown) [Example 6, Phenylmethyl-[2-[[2-(hydroxyamino)-2-oxo-1-[[[4-methoxyphenyl]sulfonyl]methyl]ethyl]amino]-2-oxoethyl]carbamate] | < 1 nM | – | 40 nM | –
CC(N)(CS(=O)(=O)c1ccc(Oc2ccccc2)cc1)C(=O)NO (stereo not shown) [Example 39] | – | – | 114 nM and 225 nM | 0.3 nM and 1.1 nM
CC(C)(C)C(=O)NC(CS(=O)(=O)c1ccc(Oc2ccccc2)cc1)C(=O)NO (stereo not shown) [Example 10d] | 2.7 nM | – | 1600 nM | –
CN(C)C(C)(CS(=O)(=O)c1ccc(Oc2ccccc2)cc1)C(=O)NO (stereo not shown) [Example 52] | 24 nM | – | – | –
COc1ccc(S(=O)(=O)CC(NC(=O)NC(C)(C)C)C(=O)NO)cc1 (stereo not shown) [Example 2, 2-[[[(1,1-Dimethylethyl)amino]carbonyl]amino]-N-hydroxy-3-[(4-methoxyphenyl)sulfonyl]propanamide] | 15 nM | – | 1500 nM | –
CC(C)(C)OC(=O)NC(C)(CS(=O)(=O)c1ccc(NC(=O)c2ccccc2)cc1)C(=O)NO (stereo not shown) [Example 62] | 1200 nM | 23.9 nM | 72.3 nM | –
C#CCNC(C)(CS(=O)(=O)c1ccc(Oc2ccccc2)cc1)C(=O)NO (stereo not shown) [Example 69] | 0.6 nM | – | 700 nM | –
N[C@H](CNO)CS(=O)(=O)c1ccc(Oc2ccccc2)cc1 [Example 60] | 0.4 nM | 0.3 nM | 440 nM | –
O=C(NC(CS(=O)(=O)c1ccc(Sc2ccccc2)cc1)C(=O)NO)OCc1ccccc1 (stereo not shown) [Example 14c, Phenylmethyl-[2-(hydroxyamino)-2-oxo-1-[[[4-(phenylthio)-phenyl]sulfonyl]methyl]ethyl]carbamate] | 3.7 nM | – | > 10000 nM | –
O=C(NC(CS(=O)(=O)c1ccc(Sc2ccccc2)cc1)C(=O)NO)c1ccccc1 (stereo not shown) [Example 34] | 5 nM | – | > 10000 nM | –
C[C@H](NC(=O)OCc1ccccc1)C(=O)NC(CS(=O)(=O)c1ccc(Sc2ccccc2)cc1)C(=O)NO (stereo partly shown) [Example 19a] | 0.8 nM | – | > 10000 nM | –
CC(=O)N[C@@H](CS(=O)(=O)c1ccc(Oc2ccccc2)cc1)C(=O)NO [Example 9g, N^2-Acetyl-N^1-hydroxyl-3-[(4-phenoxyphenyl)sulphonyl]alaninamide] | 1.1 nM | – | 770 nM | –
O=C(NO)[C@H](CS(=O)(=O)c1ccc(Oc2ccccc2)cc1)N1CCCCC1 [Example 54] | 0.3 nM | 0.2 nM | 345 nM | –
CC(C)(C)NC(=O)NC(CS(=O)(=O)c1ccc(Sc2ccccc2)cc1)C(=O)NO (stereo not shown) [Example 20b] | 4 nM | – | > 10000 nM | –
COc1cccc(OC)c1C(=O)N[C@@H](CS(=O)(=O)c1ccc(Oc2ccccc2)cc1)C(=O)NO [Example 37] | 0.4 nM | 0.25 nM | 350 nM | –

Compound | IC50 (MMP-13; [1]) | IC50 (MMP-2) | IC50 (MMP-1) | IC50 (MMP-13; [2])
COc1ccc(S(=O)(=O)CC(NC(C)=O)C(=O)NO)cc1 (stereo not shown) [Example 1, N-Hydroxy-3-[(4-methoxyphenyl)sulfonyl]-2-[(methylcarbonyl)amino]propanamide] | 15 nM | – | 300 nM | –
CC(CS(=O)(=O)c1ccc(Oc2ccccc2)cc1)(NCc1ccc2c(c1)OCO2)C(=O)NO (stereo not shown) [Example 66] | 1.1 nM | – | – | –
O=C(NC(CS(=O)(=O)c1ccc(Sc2ccccc2)cc1)C(=O)NO)c1ccco1 (stereo not shown) [Example 27] | 14 nM | – | > 10000 nM | –
CCNC(C)(CS(=O)(=O)c1ccc(Oc2ccccc2)cc1)C(=O)NO (stereo not shown) [Example 55] | 1.6 nM | – | 1600 nM | –
O=C(NC(CS(=O)(=O)c1ccc(Sc2ccccc2)cc1)C(=O)NO)c1ccccc1-c1ccccc1 (stereo not shown) [Example 35] | 0.2 nM | – | 3000 nM | –
NC(CS(=O)(=O)c1ccc(Oc2ccccc2)cc1)(C(=O)NO)c1ccccc1 (stereo not shown) [Example 70] | 0.4 nM | – | 130 nM | –
CC(CS(=O)(=O)c1ccc(Oc2ccccc2)cc1)(NCc1ccc2ccccc2c1)C(=O)NO (stereo not shown) [Example 68] | 1.4 nM | – | – | –
COc1ccc(S(=O)(=O)CC(NS(C)(=O)=O)C(=O)NO)cc1 (stereo not shown) [Example 21] | 15 nM | – | 300 nM | –
CC(N)(CS(=O)(=O)c1ccc(Sc2ccccc2)cc1)C(=O)NO (stereo not shown) [Example 58] | 2.4 nM | – | 4400 nM | –
CC(=O)N[C@@H](CS(=O)(=O)c1ccc(Sc2ccccc2)cc1)C(=O)NO [Example 30] | 2.9 nM | 0.5 nM | – | –
CC(CS(=O)(=O)c1ccc(Oc2ccccc2)cc1)(NCCc1ccccc1)C(=O)NO (stereo not shown) [Example 67] | 2.4 nM | – | 2400 nM | –
O=C(NC(CS(=O)(=O)c1ccc(Sc2ccccc2)cc1)C(=O)NO)c1cccnc1 (stereo not shown) [Example 29] | 7 nM | – | > 10000 nM | –
O=C(NC(CS(=O)(=O)c1ccc(Oc2ccccc2)cc1)(C(=O)NO)c1ccccc1)c1ccccc1 (stereo not shown) [Example 65] | 161 nM | – | – | –
CC(N)(CS(=O)(=O)c1ccc(Oc2ccccc2)cc1)C(=O)NO (stereo not shown) [Example 38] | – | – | 170 nM | 0.5 nM
CC(=O)NC(C)(CS(=O)(=O)c1ccc(Sc2ccccc2)cc1)C(=O)NO (stereo not shown) [Example 57] | 580 nM | – | – | –
O=C(N[C@@H](CS(=O)(=O)c1ccc(Sc2ccccc2)cc1)C(=O)NO)OCc1ccccc1 [Example 32] | 0.4 nM | – | 8000 nM | –
NC(CS(=O)(=O)c1ccc(Sc2ccccc2)cc1)C(=O)NO (stereo not shown) [Example 18a] | 24 nM | – | > 10000 nM | –
Cc1ccc(S(=O)(=O)NC(CS(=O)(=O)c2ccc(Sc3ccccc3)cc2)C(=O)NO)cc1 (stereo not shown) [Example 17c] | 0.4 nM | – | 600 nM | –
CC(CS(=O)(=O)c1ccc(Oc2ccccc2)cc1)(NCc1ccccc1)C(=O)NO (stereo not shown) [Example 56] | 0.3 nM | – | – | –
O=C(CNC(=O)OCc1ccccc1)NC(CS(=O)(=O)c1ccc(Sc2ccccc2)cc1)C(=O)NO (stereo not shown) [Example 16c, Phenylmethyl-[2-[[2-(hydroxyamino)-2-oxo-1-[[[4-(phenylthio)-phenyl]sulfonyl]methyl]ethyl]amino]-2-oxoethyl]carbamate] | 0.8 nM | – | > 10000 nM | –
CC(C)(C)NC(=O)NC(CS(=O)(=O)c1ccc(Sc2ccccc2)cc1)C(=O)NO (stereo not shown) [Example 45] | 5 nM | – | – | –

— patent US6583299B1, “α-amino-β-sulfonyl hydroxamic acid compounds” (priority 1999, dated 2003)
